Assay results from patent EP1120414A1, “DISUBSTITUTED MALEIMIDE COMPOUNDS AND MEDICINAL UTILIZATION THEREOF” (Japan Tobacco Inc., priority 1998, dated 2000).
Where two headings read alike, the source gives them in different places. Blank lines part the entries; values can stand above or below the molecule they belong to.

Experiments:
PKC β II = biological target: T1, PKC β II (Homo sapiens, UniProt P05771); assay: PKC enzyme assay (BIOTRAK Protein kinase C enzyme assay system, 32P-ATP phosphorylation of peptide […]); assay type: biochemical
T1 construct: purchased CALBIOCHEM
Description: The method for determining the PKC inhibitory activity of the compound of the present invention is explained in the following. Inasmuch as PKCβII is present in greater number in intravascular cells than PKCβI, PKCβII was mainly used here to test the enzyme activity.
(§1) As the reagent for enzyme assay, BIOTRAK Protein kinase C enzyme assay system (hereinafter the system, Amersham), and as the PKC enzyme standard product, Protein Kinase C, Human Recombinant (CALBIOCHEM) were purchased and used in the assay. A substrate mixture was prepared by mixing calcium buffer (12 mM calcium acetate, 50 mM Tris/HCl pH 7.5, 0.05% (w/v) sodium azide), Lipid (0.3 mg/ml La-phosphatidyl-L-serine, […] phorbol 12-myristate 13-acetate, 50 mM Tris/HCl pH 7.5, 0.05% (w/v) sodium azide), peptide buffer (900 µM peptide […]), 50 mM Tris/HCl pH 7.5, 0.05% (w/v) sodium azide), DTT buffer (30 mM dithiothreitol, 50 mM Tris/HCl pH 7.5, 0.05% (w/v) sodium azide), and magnesium ATP buffer (1.2 mM ATP, […] pH 7.4, 72 mM magnesium chloride) all attached to the system in a ratio of 1:1:1:1:0.8 and adding [ y -32P]ATP (Amersham, cat. […] The PKC enzyme standard product was diluted with an assay buffer (10 mM Hepes pH 7.4, 0.01% Triton X-100) to a concentration of 400 ng/ml and used as the enzyme solution. The substrate mixture and a test substance (diluted to the final concentration of 1 nM-10 µM with dimethyl sulfoxide (DMSO)) were mixed at a ratio of 20:1. The enzyme solution was added in the amount equivalent to the substrate mixture and mixed, which was followed by incubation at 37°C for 15 minutes. The reaction terminator (300 mM orthophosphoric acid containing carmosine red) attached to the system was added in the amount equivalent to the substrate mixture to end the reaction, and the reaction mixture was spotted on a phosphocellulose paper (Whatman, P-81), washed twice with 75 mM orthophosphoric acid and assayed for radioactivity by BAS2000 (Fuji film).
(§2) The ratio of the radioactivity of the addition of the test substance to the addition of DMSO was determined, and IC50 was calculated from inhibition at each concentration.

PKC α = biological target: T2, PKC α (Homo sapiens, UniProt P17252); assay: as above; assay type: biochemical
T2 construct: purchased CALBIOCHEM
Description: as §1, §2

[1] = Protein Kinase C, Human Recombinant; test substance 1 nM-10 µM; 37°C, 15 minutes; read-out: Inhibition of PKC activity IC50 PKC β II
[2] = Protein Kinase C, Human Recombinant; test substance 1 nM-10 µM; 37°C, 15 minutes; read-out: Inhibition of PKC activity IC50 PKC α
[3] = read-out: Inhibition of PKC activity IC50 PKC β II; Protein Kinase C, Human Recombinant; test substance 1 nM-10 µM; 37°C, 15 minutes
[4] = read-out: Inhibition of PKC activity IC50 PKC α; Protein Kinase C, Human Recombinant; test substance 1 nM-10 µM; 37°C, 15 minutes

T1 sequence (P05771 other isoform, or with tags, fused parts or gaps): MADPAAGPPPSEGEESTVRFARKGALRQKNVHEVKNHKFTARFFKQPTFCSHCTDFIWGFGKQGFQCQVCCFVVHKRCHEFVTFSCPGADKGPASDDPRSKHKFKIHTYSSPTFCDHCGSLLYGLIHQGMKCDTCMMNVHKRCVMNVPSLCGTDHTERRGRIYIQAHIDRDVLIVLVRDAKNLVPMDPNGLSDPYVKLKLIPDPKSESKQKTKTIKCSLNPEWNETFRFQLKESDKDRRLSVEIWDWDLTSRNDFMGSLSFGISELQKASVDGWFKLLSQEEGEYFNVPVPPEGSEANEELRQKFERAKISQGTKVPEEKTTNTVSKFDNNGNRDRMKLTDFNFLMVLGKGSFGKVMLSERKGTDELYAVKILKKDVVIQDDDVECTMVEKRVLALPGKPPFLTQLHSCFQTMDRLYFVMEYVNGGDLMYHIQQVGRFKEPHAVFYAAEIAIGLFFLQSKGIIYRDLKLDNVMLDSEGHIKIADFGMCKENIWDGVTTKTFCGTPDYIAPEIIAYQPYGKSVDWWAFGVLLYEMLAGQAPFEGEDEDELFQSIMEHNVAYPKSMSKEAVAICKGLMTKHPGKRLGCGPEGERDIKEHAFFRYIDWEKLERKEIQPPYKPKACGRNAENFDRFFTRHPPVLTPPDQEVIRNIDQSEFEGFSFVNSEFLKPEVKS

- Ratio α/β (PKC β II; IC50 PKC α / IC50 PKC β II): 53
- IC50 (PKC β II; [3]): 12 nM
- IC50 (PKC α; [4]): 632 nM
Structure (SMILES): CCN(C)C[C@H]1Cc2c(C3=C(Nc4ccc(F)cc4)C(=O)NC3=O)c3ccccc3n2C1 [Example 4-66]

- Ratio α/β (PKC β II; IC50 PKC α / IC50 PKC β II): 106
- IC50 (PKC β II; [3]): 14 nM
- IC50 (PKC α; [4]): 1480 nM
Structure (SMILES): O=C1NC(=O)C(c2c3n(c4ccccc24)C[C@@H](CO)C=C3)=C1Nc1ccccc1 [Example 4-53]

- Ratio α/β (PKC β II; IC50 PKC α / IC50 PKC β II): 82
- IC50 (PKC β II; [3]): 6 nM
- IC50 (PKC α; [4]): 494 nM
Structure (SMILES): CCN(CC)C[C@@H]1CCc2c(C3=C(Nc4ccccc4)C(=O)NC3=O)c3ccccc3n2C1 [Example 4-50]

- Ratio α/β (PKC β II; IC50 PKC α / IC50 PKC β II): 244
- IC50 (PKC β II; [3]): 41 nM
- IC50 (PKC α; [4]): > 10000 nM
Structure (SMILES): O=C1NC(=O)C(c2c3n(c4ccccc24)CCCC(Cn2ccnc2)C3)=C1Nc1ccccc1 (centres unmarked) [Example 4-38]

- Ratio α/β (PKC β II; IC50 PKC α / IC50 PKC β II): 69
- IC50 (PKC β II; [3]): 16 nM
- IC50 (PKC α; [4]): 1100 nM
Structure (SMILES): CCN(C)C[C@H]1Cc2c(C3=C(Nc4ccc(OC)cc4)C(=O)NC3=O)c3ccccc3n2C1 [Example 4-63]

- Ratio α/β (PKC β II; IC50 PKC α / IC50 PKC β II): 77
- IC50 (PKC β II; [3]): 84 nM
- IC50 (PKC α; [4]): 6460 nM
Structure (SMILES): COC[C@H]1Cc2c(C3=C(Nc4ccc(F)cc4)C(=O)NC3=O)c3ccccc3n2C1 [Example 4-57]

The remaining lines, values behind:

Structure (SMILES): CCN(C)CCCn1c(C)c(C2=C(Nc3ccccc3)C(=O)NC2=O)c2ccccc21 [Example 2-56, 3-[1-{3-(ethylmethylamino)propyl}-2-methyl-1H-indol-3-yl]-4-(phenylamino)-1H-pyrrole-2,5-dione]
- Ratio α/β (PKC β II; IC50 PKC α / IC50 PKC β II): 65
- IC50 (PKC β II; [1]): 84 nM
- IC50 (PKC α; [2]): 5490 nM

Structure (SMILES): NC(=O)C1CCCN1CCCn1cc(C2=C(Nc3ccccc3)C(=O)NC2=O)c2ccccc21 (centres unmarked) [Example 2-24, 3-[1-{3-(2-carbamoylpyrrolidin-1-yl)propyl}-1H-indol-3-yl]-4-(phenylamino)-1H-pyrrole-2,5-dione]
- Ratio α/β (PKC β II; IC50 PKC α / IC50 PKC β II): 42
- IC50 (PKC β II; [1]): 66 nM
- IC50 (PKC α; [2]): 2750 nM

Structure (SMILES): CC(=O)OCCn1cc(C2=C(Nc3ccccc3)C(=O)NC2=O)c2ccccc21 [Example 2-7, 3-[1-(2-acetoxyethyl)-1H-indol-3-yl]-4-(phenylamino)-1H-pyrrole-2,5-dione]
- Ratio α/β (PKC β II; IC50 PKC α / IC50 PKC β II): 57
- IC50 (PKC β II; [1]): 56 nM
- IC50 (PKC α; [2]): 3170 nM

Structure (SMILES): CN(C)CCCn1cc(C2=C(Nc3cccc(Cl)c3)C(=O)NC2=O)c2ccccc21 [Example 2-12, 3-[1-(3-dimethylaminopropyl)-1H-indol-3-yl]-4-[(3-chlorophenyl)amino]-1H-pyrrole-2,5-dione]
- Ratio α/β (PKC β II; IC50 PKC α / IC50 PKC β II): 56
- IC50 (PKC β II; [1]): 10 nM
- IC50 (PKC α; [2]): 558 nM

Structure (SMILES): CCN(CC)C[C@H]1Cc2c(C3=C(Nc4ccccc4)C(=O)NC3=O)c3ccccc3n2C1 [Example 4-65]
- Ratio α/β (PKC β II; IC50 PKC α / IC50 PKC β II): 61
- IC50 (PKC β II; [1]): 32 nM
- IC50 (PKC α; [4]): 1950 nM

Structure (SMILES): CCN(CCCn1cc(C2=C(Nc3ccccc3)C(=O)NC2=O)c2ccccc21)Cc1ccncc1 [Example 2-18, 3-[1-{3-[N-ethyl-N-(4-pyridylmethyl)amino]propyl}-1H-indol-3-yl]-4-(phenylamino)-1H-pyrrole-2,5-dione]
- Ratio α/β (PKC β II; IC50 PKC α / IC50 PKC β II): 41
- IC50 (PKC β II; [1]): 183 nM
- IC50 (PKC α; [2]): 7530 nM

Structure (SMILES): O=C1NC(=O)C(c2cn(CCn3ccnc3)c3ccccc23)=C1Nc1ccccc1 [Example 2-62, 3-[1-(2-imidazol-1-ylethyl)-1H-indol-3-yl]-4-(phenylamino)-1H-pyrrole-2,5-dione]
- Ratio α/β (PKC β II; IC50 PKC α / IC50 PKC β II): 55
- IC50 (PKC β II; [1]): 81 nM
- IC50 (PKC α; [2]): 4430 nM

Structure (SMILES): CCN(CCCn1cc(C2=C(Nc3ccccc3)C(=O)NC2=O)c2ccccc21)CCOC [Example 2-15, 3-[1-{3-[N-ethyl-N-(2-methoxyethyl)amino]propyl}-1H-indol-3-yl]-4-(phenylamino)-1H-pyrrole-2,5-dione]
- Ratio α/β (PKC β II; IC50 PKC α / IC50 PKC β II): 77
- IC50 (PKC β II; [1]): 35 nM
- IC50 (PKC α; [2]): 2680 nM

Structure (SMILES): CN1CCN(CCCn2cc(C3=C(Nc4ccccc4)C(=O)NC3=O)c3ccccc32)CC1 [Example 2-26, 3-[1-{3-(4-methylpiperazin-1-yl)propyl}-1H-indol-3-yl]-4-(phenylamino)-1H-pyrrole-2,5-dione]
- IC50 (PKC β II; [1]): 23 nM
- IC50 (PKC α; [2]): 968 nM

Structure (SMILES): O=C1NC(=O)C(c2c3n(c4ccccc24)C[C@H](CO)C3)=C1Nc1ccccc1 [Example 4-58]
- Ratio α/β (PKC β II; IC50 PKC α / IC50 PKC β II): 73
- IC50 (PKC β II; [1]): 14 nM
- IC50 (PKC α; [4]): 1020 nM

Structure (SMILES): O=C1NC(=O)C(c2cn(CCCO)c3ccccc23)=C1Nc1ccc(Cl)c(Cl)c1 [Example 2-6, 3-[(3,4-dichlorophenyl)amino]-4-[1-(3-hydroxypropyl)-1H-indol-3-yl]-1H-pyrrole-2,5-dione]
- Ratio α/β (PKC β II; IC50 PKC α / IC50 PKC β II): 55
- IC50 (PKC β II; [1]): 60 nM
- IC50 (PKC α; [2]): 3310 nM

Structure (SMILES): O=C1NC(=O)C(c2cn(CCCn3cncn3)c3ccccc23)=C1Nc1ccccc1 [Example 2-38, 3-(phenylamino)-4-[1-{3-(1,2,4-triazol-1-yl)propyl}-1H-indol-3-yl]-1H-pyrrole-2,5-dione]
- Ratio α/β (PKC β II; IC50 PKC α / IC50 PKC β II): 25
- IC50 (PKC β II; [1]): 40 nM
- IC50 (PKC α; [2]): > 1000 nM

Structure (SMILES): CN(C)C[C@@H]1CCc2c(C3=C(Nc4ccccc4)C(=O)NC3=O)c3ccccc3n2C1 [Example 4-41]
- Ratio α/β (PKC β II; IC50 PKC α / IC50 PKC β II): 74
- IC50 (PKC β II; [1]): 6 nM
- IC50 (PKC α; [4]): 445 nM

Structure (SMILES): O=C1NC(=O)C(c2c[nH]c3ccccc23)=C1Nc1cccc(F)c1 [Example 1-12, 3-[(3-fluorophenyl)amino]-4-(1H-indol-3-yl)-1H-pyrrole-2,5-dione]
- Ratio α/β (PKC β II; IC50 PKC α / IC50 PKC β II): 29
- IC50 (PKC β II; [1]): 249 nM
- IC50 (PKC α; [2]): 7160 nM

Structure (SMILES): CN1CCC(Cn2cc(C3=C(Nc4ccccc4)C(=O)NC3=O)c3ccccc32)CC1 [Example 3-4, 3-[1-{(1-methylpiperidin-4-yl)methyl}-1H-indol-3-yl]-4-(phenylamino)-1H-pyrrole-2,5-dione]
- Ratio α/β (PKC β II; IC50 PKC α / IC50 PKC β II): 29
- IC50 (PKC β II; [1]): 18 nM
- IC50 (PKC α; [2]): 518 nM

Structure (SMILES): O=C1NC(=O)C(c2cn(CC3CCN(CC(O)CO)CC3)c3ccccc23)=C1Nc1ccccc1 (centres unmarked) [Example 3-5, 3-[1-{[1-(2,3-dihydroxypropyl)piperidin-4-yl]methyl}-1H-indol-3-yl]-4-(phenylamino)-1H-pyrrole-2,5-dione]
- Ratio α/β (PKC β II; IC50 PKC α / IC50 PKC β II): 56
- IC50 (PKC β II; [1]): 29 nM
- IC50 (PKC α; [2]): 1630 nM

Structure (SMILES): CN(C)CCn1cc(C2=C(Nc3ccccc3)C(=O)NC2=O)c2ccccc21 [Example 2-9, 3-[1-(2-dimethylaminoethyl)-1H-indol-3-yl]-4-(phenylamino)-1H-pyrrole-2,5-dione]
- Ratio α/β (PKC β II; IC50 PKC α / IC50 PKC β II): 77
- IC50 (PKC β II; [1]): 28 nM
- IC50 (PKC α; [2]): 2160 nM

Structure (SMILES): CN(C)CCCn1cc(C2=C(Nc3ccccc3)C(=O)NC2=O)c2ccccc21 [Example 2-8, 3-[1-(3-dimethylaminopropyl)-1H-indol-3-yl]-4-(phenylamino)-1H-pyrrole-2,5-dione]
- Ratio α/β (PKC β II; IC50 PKC α / IC50 PKC β II): 38
- IC50 (PKC β II; [1]): 12 nM
- IC50 (PKC α; [2]): 460 nM

Structure (SMILES): CN(C)C[C@H]1Cc2c(C3=C(Nc4ccccc4)C(=O)NC3=O)c3ccccc3n2C1 [Example 4-64]
- Ratio α/β (PKC β II; IC50 PKC α / IC50 PKC β II): 37
- IC50 (PKC β II; [1]): 4 nM
- IC50 (PKC α; [4]): 148 nM

Structure (SMILES): Cc1cccc(NC2=C(c3c[nH]c4ccccc34)C(=O)NC2=O)c1 [Example 1-5, 3-(1H-indol-3-yl)-4-[(3-methylphenyl)amino]-1H-pyrrole-2,5-dione]
- Ratio α/β (PKC β II; IC50 PKC α / IC50 PKC β II): 33
- IC50 (PKC β II; [1]): 151 nM
- IC50 (PKC α; [2]): 4920 nM

Structure (SMILES): O=C1NC(=O)C(c2cn(CCCS(=O)(=O)c3ccccc3)c3ccccc23)=C1Nc1ccccc1 [Example 2-35, 3-[1-{3-(phenylsulfonyl)propyl}-1H-indol-3-yl]-4-(phenylamino)-1H-pyrrole-2,5-dione]
- Ratio α/β (PKC β II; IC50 PKC α / IC50 PKC β II): 41
- IC50 (PKC β II; [1]): 95 nM
- IC50 (PKC α; [2]): 3890 nM
